Earlier results as cited in patent publication US20070202050A1, “Pharmaceutical Formulations” (priority 2006, published 2007).

Columns and labels:
[1] = tested on: rhinoviruses
[2] = topically active steroid
[3] = tested on: secretions of natural tear components; settings: preclinical testing
[4] = tested on: symptoms associated with chronic nasal congestion

## Cc1cc(CCCOc2c(C)cc(-c3noc(C(F)(F)F)n3)cc2C)on1 [Pleconaril, 1,2,4-oxadiazole3-[3,5-Dimethyl-4-[3-(3-methyl-5-isoxazolyl)propoxy]phenyl]-5-(trifluoremethyl)]
other
  solubility in water / aqueous solvents: insoluble
For example corn oil and ethanol
  solubility in liquids: soluble only in liquids of low polarity
[1]
  activity against rhinoviruses: active against rhinoviruses

## C[C@@H]1C[C@H]2[C@@H]3CCC4=CC(=O)C=C[C@]4(C)[C@@]3(Cl)[C@@H](O)C[C@]2(C)[C@@]1(OC(=O)c1ccco1)C(=O)CCl [Mometasone Furoate]
[2]
  bioavailability: not readily bioavailable

## O=c1ccn([C@@H]2O[C@H](COP(=O)(O)OP(=O)(O)OP(=O)(O)OP(=O)(O)OC[C@H]3O[C@@H](n4ccc(=O)[nH]c4=O)[C@H](O)[C@@H]3O)[C@@H](O)[C@H]2O)c(=O)[nH]1 [diquafosol]
[3]
  effect on secretions of natural tear components: increased the secretions of natural tear components

## Oc1cccc(Nc2ncc(F)c(Nc3cccc(O)c3)n2)c1 [R112]
[4]
  absolute difference over placebo: 9%
  improvement from baseline measurements (prior to drug initiation): up to 38%
  relative improvement over placebo: greater than 20%
